# How the values were obtained:
# TNF-α = assay: Intracellular TNF-α in LPS-stimulated murine neutrophils (flow cytometry); type: cell-based; details: for Expression of TNF-α Mean ± S.E: LPS Control 2.62 ± 0.01
# Procedure: The present inventors also adduce extra evidence to support the ability of Calebin A to suppress intracellular TNF and extracellular IL-1β in murine neutrophil systems (Table II, Table III). Neutrophils are isolated by histopaque gradient method tested for their ability to produce in vitro TNF-α following stimulation with Lipopolysaccharide (LPS). The cells were incubated with phycoerythrin (PE)-labeled anti-mouse TNF-α in the dark, and after being washed with sterile PBS, samples were resuspended in PBS (pH 7.4) and acquired directly on the flow cytometer (BDLSR; Becton Dickinson). A fluorescence trigger was set on the PE […] parameter of the gated neutrophil populations (10,000 events). Rolipram at 100 μg/ml was used as standard inhibitor of TNF-α in this study. Fluorescence compensation, data analysis, and data presentation were performed using Cell Quest Pro software (Becton Dickinson).
# 3T3-L1 preadipocytes = assay: Differentiation and adipogenesis of 3T3-L1 preadipocytes, Oil Red O (Example IV); type: cell-based, Mouse; details: 5, 10, 15, 20, 25 and 30 μM for 8 days
# Procedure: Mouse 3T3-L1 pre-adipocytes purchased from the American Type Culture Collection (Rockville, Md.) were grown in Dulbecco's Modified Eagle's Medium (DMEM) supplemented with 2 mM glutamine (GIBCO BRL), 1% penicillin/streptomycin (10000 units of penicillin/mL and 10 mg streptomycin/mL) and 10% fetal calf serum (FCS) at 37° C. under a humidified 5% CO2 atmosphere. Briefly, cells were seeded into 24-well (2×10^4/mL) or 10 cm dish with DMEM containing 10% fetal bovine serum (FBS) to full confluence. […]
# At the end of differentiation, cells were washed twice with phosphate-buffered saline (PBS), fixed with 10% formalin for 60 min, stained with 0.5% Oil Red O in isopropanol for 1 h at room temperature. […] To quantify lipid accumulation, the stained lipid droplets were dissolved in isopropanol and the absorbance was measured at 520 nm.
# Differentiation of 3T3-L1 preadipocytes stained with Oil Red O and photographed (upper and middle). 3T3-L1 preadipocytes were incubated with MDI (DMEM with IBMX, DEX, and insulin) for 2 days and then replaced with DMEM containing insulin with or without Calebin A (0, 5, 10, 15, 20, 25 and 30 μM), respectively, for 8 days, Lipid content was extracted from Oil Red O stained cells by 2-propanol and quantified by spectrophotometric analysis at 520 nm.
# IL-1 beta = assay: Serum IL-1 beta in LPS-injected mice after 6 days oral treatment (ELISA); type: in vivo, Swiss albino mice; details: graded doses, then LPS 1 mg/kg i.v., serum 90 min after LPS
# Procedure: The present inventors also adduce study data on the ability of Calebin A to reduce expression of Extracellular TNF-α, IL-1 beta [FIG. 6] and IL-6 [FIG. 7] in serum from treated mice (in-vivo models). Swiss albino male mice aged 6-8 weeks were maintained at 22±2° C. under 12/12 h light dark cycle. Mice received oral treatment of test drugs at graded doses (w/v) for 6 days, followed by intravenous injection of 1 mg/kg of LPS according to the method described by Brieva A, Guerrero A, Alonso-Lebrero J L and Pivel J P. 2001. Immunoferon, a glycoconjugate of natural origin, inhibits LPS-induced TNF-α production and inflammatory responses. International Immunopharmacology 1, 1979-1987. Six mice were employed in each group and experiments were performed in triplicates. TNF-α, IL-1 beta and IL-6 production was evaluated by a commercial ELISA kits (R&D Systems) in serum from treated mice, 90 min after LPS injection. Rolipram at 30 mg/kg was used as standard drug.
compound,measurement,setting,value
COc1cc(/C=C/C(=O)COC(=O)/C=C/c2ccc(O)c(OC)c2)ccc1O [Calebin A],% Activity (suppression of TNF-α expression),TNF-α; 0.5 μg/ml,28.62%↓
same,Expression of TNF-α Mean ± S.E,TNF-α; 0.5 μg/ml,1.87 ± 0.04
same,% Activity (suppression of TNF-α expression),TNF-α; 1.0 μg/ml,35.11%↓
same,Expression of TNF-α Mean ± S.E,TNF-α; 1.0 μg/ml,1.70 ± 0.02
same,% Activity (suppression of TNF-α expression),TNF-α; 2.0 μg/ml,39.31%↓
same,Expression of TNF-α Mean ± S.E,TNF-α; 2.0 μg/ml,1.59 ± 0.05
same,differentiation and adipogenesis of 3T3-L1 preadipocytes,3T3-L1 preadipocytes,inhibits
same,expression of IL-1 beta in serum,IL-1 beta,effective in reducing

# — patent US9737502B2, “Calebin A for hepatic steatosis” (SAMI LABS LIMITED, priority 2011, dated 2017)
